{"source": "patent US20250325558A1", "about": "“MODULATION OF BACE1 AS A THERAPY FOR SPINOCEREBELLAR ATAXIA” (The General Hospital Corporation, priority 2022, published 2025)", "origin": "cited, not measured here", "details": "preclinical and clinical studies"}
{"molecule": "CN1C(=N)N[C@](C)(c2cc(NC(=O)c3ccc(F)cn3)ccc2F)CS1(=O)=O", "note": "[MK-8931, verubecestat]", "values": [{"measurement": "serious adverse side effects such as liver toxicity", "value": "did not produce any serious adverse side effects such as liver toxicity"}]}
